In ChEMBL document CHEMBL5244260, “Aldose reductase and protein tyrosine phosphatase 1B inhibitors as a promising therapeutic approach for diabetes mellitus” (Eur J Med Chem, 2020):
Blank lines part the entries; values can stand above or below the compound they belong to.

What was measured:
[1] = molecular target: T1, Aldo-keto reductase family 1 member B1 (Homo sapiens, UniProt P15121); assay: Inhibition of human ALR2 assessed as inhibition constant
[2] = molecular target: T2, Tyrosine-protein phosphatase non-receptor type 1 (Homo sapiens, UniProt P18031); assay: Inhibition of PTP1B (unknown origin) assessed as inhibition constant using pNPP as substrate
T2 sequence (P18031 whole entry): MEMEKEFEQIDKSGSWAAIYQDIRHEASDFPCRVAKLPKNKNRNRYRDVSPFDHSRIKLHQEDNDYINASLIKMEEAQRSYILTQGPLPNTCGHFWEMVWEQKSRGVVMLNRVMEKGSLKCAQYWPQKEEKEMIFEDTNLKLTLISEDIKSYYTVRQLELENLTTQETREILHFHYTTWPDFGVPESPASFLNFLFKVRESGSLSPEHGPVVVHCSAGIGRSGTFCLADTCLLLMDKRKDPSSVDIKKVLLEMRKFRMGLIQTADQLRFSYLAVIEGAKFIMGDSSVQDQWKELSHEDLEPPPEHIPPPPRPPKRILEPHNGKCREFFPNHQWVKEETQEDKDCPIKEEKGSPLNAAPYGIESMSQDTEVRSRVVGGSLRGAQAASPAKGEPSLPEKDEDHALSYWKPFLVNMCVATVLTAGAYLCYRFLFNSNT

[3] = Inhibition of ALR2 in Wistar rat lens using D,L-glyceraldehyde as substrate preincubated for 10 mins in presence of NADPH followed by substrate addition and measured after 5 mins by spectrophotometric assay; format: tissue-based
[4] = Inhibition of ALR2 in Wistar rat using D,L-glyceraldehyde as substrate preincubated for 10 mins in presence of NADPH followed by substrate addition and measured after 4 mins by spectrophotometric assay
[5] = molecular target: T2, Tyrosine-protein phosphatase non-receptor type 1; assay: Inhibition of PTP1B (1 to 321 residues) (unknown origin) expressed in Escherichia coli BL21 assessed as inhibition constant using pNPP as substrate incubated for 60 min by Michaelis-Menten analysis
Homo sapiens [6] = organism: Homo sapiens; assay: Selectivity ratio of Ki for PTP1B (unknown origin) to Ki for LAR (unknown origin)
Homo sapiens [7] = organism: Homo sapiens; assay: Selectivity ratio of Ki for PTP1B (unknown origin) to Ki for PTPalpha (unknown origin)
[8] = molecular target: Aldo-keto reductase family 1 member B1 (Sus scrofa, UniProt P80276); assay: Inhibition of ALR2 in pig lens using D,L-glyceraldehyde as substrate preincubated for 4 mins in presence of NADPH followed by substrate addition and measured after 4 mins by spectrophotometric assay; format: tissue-based
Mus musculus = assay: Anti-diabetic activity in ob/ob diabetic C57BL/6J mouse assessed as decrease in glucose level at 25 mg/kg,po dosed for 4 days; format: functional; design: scale not given: the % may be the effect or the level left; conditions: time 4 day
[9] = molecular target: T3, Tyrosine-protein phosphatase non-receptor type 7 (Homo sapiens, UniProt P35236); assay: Inhibition of HEPTP (unknown origin)
T3 sequence (P35236 whole entry): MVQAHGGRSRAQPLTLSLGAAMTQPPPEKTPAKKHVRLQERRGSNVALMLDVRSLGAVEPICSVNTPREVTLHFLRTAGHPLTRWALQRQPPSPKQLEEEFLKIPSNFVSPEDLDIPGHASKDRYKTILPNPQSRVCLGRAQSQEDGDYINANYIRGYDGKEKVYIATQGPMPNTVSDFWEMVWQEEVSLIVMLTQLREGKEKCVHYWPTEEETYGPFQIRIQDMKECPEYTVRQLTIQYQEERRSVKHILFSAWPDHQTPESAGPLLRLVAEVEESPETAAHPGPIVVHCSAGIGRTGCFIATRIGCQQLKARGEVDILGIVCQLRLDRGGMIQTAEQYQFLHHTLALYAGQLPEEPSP

[10] = molecular target: Receptor-type tyrosine-protein phosphatase alpha (Homo sapiens, UniProt P18433); assay: Inhibition of PTPalpha (unknown origin)
[11] = molecular target: T2, Tyrosine-protein phosphatase non-receptor type 1; assay: Inhibition of human recombinant PTP1B (1 to 321 residues) expressed in Escherichia coli BL21 assessed as inhibition constant using pNPP as substrate
[12] = molecular target: T1, Aldo-keto reductase family 1 member B1; assay: Inhibition of human Aldose reductase using glyceraldehyde as substrate preincubated for 5 mins in presence of NADPH followed by substrate addition and measured after 3 mins by UV-visible spectrophotometric assay
[13] = molecular target: T2, Tyrosine-protein phosphatase non-receptor type 1; assay: Inhibition of PTP1B (1 to 321 residues) (unknown origin) expressed in Escherichia coli BL21 assessed as inhibition constant using pNPP as substrate incubated for 2 to 3 min by spectrophotometry analysis
[14] = molecular target: T4, Aldo-keto reductase family 1 member B1 (Rattus norvegicus, UniProt P07943); assay: Inhibition of recombinant Aldose reductase in rat lens using D,L-glyceraldehyde as substrate in presence of NADPH measured after 4 mins by spectrophotometric assay; format: tissue-based
[15] = molecular target: T2, Tyrosine-protein phosphatase non-receptor type 1; assay: Inhibition of human PTP1B using pNPP as substrate incubated for 30 min
[16] = molecular target: T2, Tyrosine-protein phosphatase non-receptor type 1; assay: Inhibition of PTP1B (unknown origin) using flurogenic substrate by fluorescence plate reader assay
Homo sapiens [17] = organism: Homo sapiens; assay: Selectivity ratio of IC50 for PTP1B (unknown origin) to IC50 for TCPTP (unknown origin)
Homo sapiens [18] = organism: Homo sapiens; assay: Selectivity ratio of IC50 for PTP1B (unknown origin) to IC50 for LAR (unknown origin)
Homo sapiens [19] = organism: Homo sapiens; assay: Selectivity ratio of IC50 for PTP1B (unknown origin) to IC50 for PP1 (unknown origin)
Homo sapiens [20] = organism: Homo sapiens; assay: Selectivity ratio of IC50 for PTP1B (unknown origin) to IC50 for YOP (unknown origin)
Homo sapiens [21] = organism: Homo sapiens; assay: Selectivity ratio of IC50 for PTP1B (unknown origin) to IC50 for Protein phosphatase-lambda (unknown origin)
[22] = Inhibition of ALR2 in rat lens using D,L-glyceraldehyde as substrate preincubated for 10 mins in presence of NADPH followed by substrate addition and measured after 20 mins by spectrophotometric assay; format: tissue-based
[23] = molecular target: T2, Tyrosine-protein phosphatase non-receptor type 1; assay: Inhibition of Flag-tagged human PTP1B (1 to 298 residues) expressed in Escherichia coli BL21 using FDP as substrate
[24] = molecular target: T5, Tyrosine-protein phosphatase non-receptor type 2 (Homo sapiens, UniProt P17706); assay: Inhibition of Flag-tagged human TCPTP (1 to 296 residues) expressed in Escherichia coli BL21 using FDP as substrate
T5 sequence (P17706 whole entry): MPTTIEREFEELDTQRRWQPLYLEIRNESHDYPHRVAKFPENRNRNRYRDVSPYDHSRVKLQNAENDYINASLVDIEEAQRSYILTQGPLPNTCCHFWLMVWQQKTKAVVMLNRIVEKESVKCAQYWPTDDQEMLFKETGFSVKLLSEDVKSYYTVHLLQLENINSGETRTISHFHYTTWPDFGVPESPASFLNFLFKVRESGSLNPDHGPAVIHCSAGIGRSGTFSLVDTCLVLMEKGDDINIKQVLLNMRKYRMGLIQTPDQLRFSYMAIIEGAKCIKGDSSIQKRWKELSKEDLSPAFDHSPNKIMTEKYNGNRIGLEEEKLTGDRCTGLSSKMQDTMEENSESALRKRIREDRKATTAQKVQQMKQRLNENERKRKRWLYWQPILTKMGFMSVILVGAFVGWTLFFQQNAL

[25] = molecular target: T4, Aldo-keto reductase family 1 member B1; assay: Inhibition of Aldose reductase in rat lens using D,L-glyceraldehyde as substrate in presence of NADPH by spectrophotometric assay; format: tissue-based

Receptor-type tyrosine-protein phosphatase alpha, sequence (P18433 whole entry, the tested form may be a part): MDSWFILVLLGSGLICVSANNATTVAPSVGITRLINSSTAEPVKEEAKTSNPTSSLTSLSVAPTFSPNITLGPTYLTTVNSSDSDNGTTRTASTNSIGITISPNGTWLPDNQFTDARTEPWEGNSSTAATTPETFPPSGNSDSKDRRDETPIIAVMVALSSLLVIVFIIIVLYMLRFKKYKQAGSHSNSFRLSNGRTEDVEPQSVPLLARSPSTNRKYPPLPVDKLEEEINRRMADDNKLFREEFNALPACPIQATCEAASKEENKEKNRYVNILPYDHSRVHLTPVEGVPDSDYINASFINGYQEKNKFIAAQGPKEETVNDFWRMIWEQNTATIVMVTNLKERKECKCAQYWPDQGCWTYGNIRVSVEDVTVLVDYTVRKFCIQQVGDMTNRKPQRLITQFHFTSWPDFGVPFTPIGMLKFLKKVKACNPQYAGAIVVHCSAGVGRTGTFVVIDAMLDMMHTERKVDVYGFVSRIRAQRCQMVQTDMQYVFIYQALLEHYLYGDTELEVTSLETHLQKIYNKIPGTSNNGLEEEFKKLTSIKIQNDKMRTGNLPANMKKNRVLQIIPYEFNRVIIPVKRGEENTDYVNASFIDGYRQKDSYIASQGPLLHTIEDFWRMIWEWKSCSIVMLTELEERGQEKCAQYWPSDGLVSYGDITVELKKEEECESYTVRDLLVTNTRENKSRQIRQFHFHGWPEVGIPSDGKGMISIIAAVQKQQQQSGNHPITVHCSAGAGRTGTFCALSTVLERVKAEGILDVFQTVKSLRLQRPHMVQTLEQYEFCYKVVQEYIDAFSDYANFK

Ki [2]: 1200 nM
Compound: CCCCCNC(=O)[C@H](Cc1ccc(OC(C(=O)O)C(=O)O)cc1)NC(=O)[C@H](Cc1ccccc1)NC(=O)CCC(=O)O

IC50 [3]: 126 nM
Compound: O=C(O)CC1=CN(/C=C/c2ccc(O)c(O)c2)S(=O)(=O)c2ccccc21

Ratio Ki (Homo sapiens [6]): 20
Ratio Ki (Homo sapiens [7]): 20
Compound: O=C(O)COc1ccc(-c2cc(NC(=O)C(=O)O)c(C(=O)O)s2)cc1

IC50 [8]: 18000 nM
Compound: Cc1cc2c(s1)CCC1CC(=O)N(CCCCCC(=O)O)N=C21 (stereo unspecified)

Ki [11]: 250 nM
Compound: CCCCCNC(=O)[C@H](Cc1ccc(OCC(=O)O)c(C(=O)O)c1)NC(=O)[C@H](Cc1ccccc1)NC(=O)CCC(=O)O

IC50 [12]: 1300 nM
Compound: Nc1ccc(CNC(=O)c2ccc(Cl)cc2OCC(=O)O)c(F)c1

IC50 [14]: 3000 nM
Compound: O=C1CC2(C(=O)N1)c1ccc(O)cc1C=Cc1cc(O)ccc12

IC50 [16]: 4700 nM
Ratio IC50 (Homo sapiens [17]): 10
Ratio IC50 (Homo sapiens [18]): 10
Ratio IC50 (Homo sapiens [19]): 10
Ratio IC50 (Homo sapiens [20]): 10
Ratio IC50 (Homo sapiens [21]): 10
Compound: COC(=O)C(O)c1ccc(NC(=O)CCCCn2cc(COc3ccc(-c4cc(C(=O)O)no4)cc3)nn2)cc1 (stereo unspecified)

IC50 [22]: 490 nM
Compound: Cc1ccc(C(=O)/C(=C/c2ccc(O)c(O)c2)C(=O)O)cc1

IC50 [25]: 45000 nM
Compound: CC(C)NC(=O)NS(=O)(=O)c1ccc(-n2nc(-c3ccc(F)cc3)ccc2=O)cc1

Second part, the compound before the results:

Compound: N#Cc1ccc(CNC(=O)c2ccc(Cl)cc2OCC(=O)O)cc1
Ki [1]: 2000 nM

Compound: O=C(O)Cn1c(=O)c(Cc2ccc(Br)cc2F)nc2ccc(F)cc21
IC50 [4]: 6.44 nM

Compound: O=C(O)C(=O)Nc1sc2c(c1C(=O)O)COC(COC1=NS(=O)(=O)c3ccccc31)C2 (stereo unspecified)
Ki [5]: 600 nM

Compound: O=C(O)[C@H](Cc1ccccc1)Oc1ccc(-c2ccc(-c3c(Cc4ccccc4)oc4ccccc34)cc2)cc1
Activity (Mus musculus): 27%
IC50 [9]: 7100 nM
IC50 [10]: 33700 nM

Compound: CCCCCCCCCCCCCCC(=O)N[C@@H](Cc1ccc(C(F)(F)P(=O)(O)O)cc1)C(=O)N[C@@H](CC(=O)O)C(=O)N[C@@H](Cc1ccc(C(F)(F)P(=O)(O)O)cc1)C(N)=O
Ki [13]: 25 nM

Compound: CCCCCCS(=O)(=O)NC(=O)c1ccc(CSCc2ccc(-c3ccccc3)cc2)cc1
IC50 [15]: 280 nM

Compound: Cc1noc(-c2ccc(C(C/C=C/c3ccccc3)(Cc3ccc(C(F)(F)P(=O)(O)O)cc3)n3nnc4ccccc43)cc2)n1 (stereo unspecified)
IC50 [23]: 163 nM
IC50 [24]: 1600 nM
